Reference: article PMC9506414, “Novel 2,6,9-Trisubstituted Purines as Potent CDK Inhibitors Alleviating Trastuzumab-Resistance of HER2-Positive Breast Cancers” (Pharmaceuticals, 2022)
Entries after “also recorded” stand apart in the source; their conditions may differ. Where two headings read alike, the source gives them in different places.

Tests used:
cyclinK = experiment: Western blot of cyclinK in SK-Br3 cells; assay type: cell-based, human; details: SK-Br3 cells, 0.2, 1 μM, 2 h
Experimental: (§1) The proteins were transferred to nitrocellulose membrane (Gelman Sciences, Ann Arbor, MI, USA) by electroblotting. The membranes were blocked with 5% non-fat dry milk (MB Cell, Seoul, Korea), incubated with primary antibodies for overnight at 4 °C. After the washing steps were performed with TBST solution, the membranes were incubated with HRP-conjugated secondary antibodies for 1 h at rt. After the secondary washing steps using TBST solution, protein bands on the membranes were visualized using enhanced chemiluminescence ECL detection reagent (Biorad Laboratories, Hercules, CA, USA).

Pol II p-CTD (Ser2) = experiment: Western blot of Pol II p-CTD (Ser2) in SK-Br3 cells; assay type: cell-based, human; details: SK-Br3 cells, 0.2, 1 μM, 2 h
Text: For Western blot analysis, the following antibodies were used: anti-Pol II CTD (2629S, Cell Signaling Technology, Danvers, MA, USA), anti-Pol II p-CTD (Ser2) (13499S, Cell Signaling Technology), anti-cyclinK (A301-939A-M, Bethyl Laboratories), anti-IRS1 (3407S, Cell Signaling Technology), anti-WNT1 (SC-514531, Santa Cruz Biotechnology, Dallas, TX, USA), anti-β-actin (MAB1501R, Millipore, Burlington, MA, USA), and horseradish peroxidase (HRP)-conjugated secondary antibodies (anti-mouse GTX213112-01; anti-rabbit GTX213110-01) (Genetex, Irvine, CA, USA).
as §1, with “Cells were lysed with lysis buffer containing 50 mM Tris pH 7.4, 150 mM NaCl, 1 mM EDTA, 1% NP-40, and 0.25% sodium deoxycholate supplemented with protease-inhibitor and phosphatase-inhibitor cocktails. The lysate samples (25 μg/lane) were loaded onto 6–12% sodium dodecyl sulfate polyacrylamide gel and separated by electrophoresis (SDS-PAGE). The proteins” for “The proteins”

SK-Br3 cells = experiment: Antiproliferation assay (Cell-titer Glo, 72 h); assay type: cell-based; details: Homo sapiens, SK-BR-3; 72 h; means and standard deviations from three independent assays; read-out: SK-Br3 (GI50/μM)
Experimental: (§2) Breast-cancer cell lines (SK-Br3, HCC-1954) were purchased from Korea Cell Line Bank (Seoul, Korea) and were cultured in RPMI medium supplemented with 10% FBS and penicillin/streptomycin (Welgene, Seoul, Korea). All cell lines were maintained at 37 °C in a cell incubator in the presence of 5% CO2.
(§3) Breast-cancer cells in culture media (100 μL volume/well, 5000 SK-Br3 cells/well, 1000 HCC-1954 cells/well) were seeded in tissue culture-treated 96-well plates, and incubated at a cell incubator for 24 h. Serially diluted compounds (3-fold, 10 point from 10 mM, duplicated) were pre-plated and 500 nL of compound solutions were pin-transferred to the cells in the assay plates using pintool system (JANUS liquid handler, PerkinElmer, Waltham, MA, USA) and incubated at a cell incubator for 72 h. Cell-titer Glo^TM reagent (50 μL, Promega Corp., Madison, WI, USA) was added to each well, and the luminescence signal was read using an Envision^TM plate reader (PerkinElmer, Waltham, MA, USA). The titration curve fitting and IC50 values were generated using Prism 7.0 s/w (GraphPad, San Diego, CA, USA).

HCC1954 cells = experiment: Antiproliferation assay (Cell-titer Glo, 72 h); assay type: cell-based; details: Homo sapiens, 72 h, means and standard deviations from three independent assays, read-out: HCC1954 (GI50/μM)
Experimental: as §2, §3

CDK12/CyclinK = CDK12/CyclinK (Homo sapiens, UniProt Q9NYV4); experiment: In vitro CDK12/cyclinK kinase assay; assay type: biochemical; parameters: purchased Reaction Biology Corp. (CRO that ran the assay)
Chain of CDK12/CyclinK (Q9NYV4 whole entry): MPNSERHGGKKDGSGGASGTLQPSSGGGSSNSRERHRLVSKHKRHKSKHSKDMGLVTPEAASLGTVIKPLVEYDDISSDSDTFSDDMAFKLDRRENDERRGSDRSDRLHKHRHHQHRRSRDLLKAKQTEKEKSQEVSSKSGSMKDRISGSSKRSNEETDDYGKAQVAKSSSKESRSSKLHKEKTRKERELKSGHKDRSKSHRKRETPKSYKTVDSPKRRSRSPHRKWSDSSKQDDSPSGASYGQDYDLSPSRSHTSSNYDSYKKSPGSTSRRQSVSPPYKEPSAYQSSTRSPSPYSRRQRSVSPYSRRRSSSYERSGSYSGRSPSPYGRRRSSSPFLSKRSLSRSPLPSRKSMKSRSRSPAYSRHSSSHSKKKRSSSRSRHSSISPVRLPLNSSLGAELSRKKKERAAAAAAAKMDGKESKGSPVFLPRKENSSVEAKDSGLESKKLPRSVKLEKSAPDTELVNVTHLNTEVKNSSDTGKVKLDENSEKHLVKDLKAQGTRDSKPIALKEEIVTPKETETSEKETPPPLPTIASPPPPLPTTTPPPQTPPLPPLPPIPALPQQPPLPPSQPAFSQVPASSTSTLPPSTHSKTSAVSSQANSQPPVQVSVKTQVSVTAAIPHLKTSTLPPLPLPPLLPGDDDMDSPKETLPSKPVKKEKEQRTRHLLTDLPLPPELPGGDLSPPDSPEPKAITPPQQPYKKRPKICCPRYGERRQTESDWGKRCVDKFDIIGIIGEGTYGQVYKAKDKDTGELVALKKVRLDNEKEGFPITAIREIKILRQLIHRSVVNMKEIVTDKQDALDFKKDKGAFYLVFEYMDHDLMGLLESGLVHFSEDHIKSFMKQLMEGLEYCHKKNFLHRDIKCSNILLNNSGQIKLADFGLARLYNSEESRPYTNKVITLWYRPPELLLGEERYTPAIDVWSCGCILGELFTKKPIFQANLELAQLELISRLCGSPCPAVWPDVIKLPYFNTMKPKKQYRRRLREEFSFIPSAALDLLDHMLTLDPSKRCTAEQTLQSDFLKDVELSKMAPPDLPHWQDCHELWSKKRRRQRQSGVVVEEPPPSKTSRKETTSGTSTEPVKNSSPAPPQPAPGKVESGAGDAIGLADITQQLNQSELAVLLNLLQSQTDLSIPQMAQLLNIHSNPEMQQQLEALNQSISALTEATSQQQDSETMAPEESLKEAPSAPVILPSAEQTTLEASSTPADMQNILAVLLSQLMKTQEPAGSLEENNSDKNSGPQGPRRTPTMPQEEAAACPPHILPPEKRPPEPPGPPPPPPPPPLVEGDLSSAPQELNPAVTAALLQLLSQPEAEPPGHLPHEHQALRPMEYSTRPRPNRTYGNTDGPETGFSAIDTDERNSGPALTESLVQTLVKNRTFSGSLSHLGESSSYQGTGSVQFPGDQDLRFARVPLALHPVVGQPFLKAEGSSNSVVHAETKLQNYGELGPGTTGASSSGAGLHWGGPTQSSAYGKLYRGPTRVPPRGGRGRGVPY
Chain of CDK12/CyclinK (O75909 whole entry partner): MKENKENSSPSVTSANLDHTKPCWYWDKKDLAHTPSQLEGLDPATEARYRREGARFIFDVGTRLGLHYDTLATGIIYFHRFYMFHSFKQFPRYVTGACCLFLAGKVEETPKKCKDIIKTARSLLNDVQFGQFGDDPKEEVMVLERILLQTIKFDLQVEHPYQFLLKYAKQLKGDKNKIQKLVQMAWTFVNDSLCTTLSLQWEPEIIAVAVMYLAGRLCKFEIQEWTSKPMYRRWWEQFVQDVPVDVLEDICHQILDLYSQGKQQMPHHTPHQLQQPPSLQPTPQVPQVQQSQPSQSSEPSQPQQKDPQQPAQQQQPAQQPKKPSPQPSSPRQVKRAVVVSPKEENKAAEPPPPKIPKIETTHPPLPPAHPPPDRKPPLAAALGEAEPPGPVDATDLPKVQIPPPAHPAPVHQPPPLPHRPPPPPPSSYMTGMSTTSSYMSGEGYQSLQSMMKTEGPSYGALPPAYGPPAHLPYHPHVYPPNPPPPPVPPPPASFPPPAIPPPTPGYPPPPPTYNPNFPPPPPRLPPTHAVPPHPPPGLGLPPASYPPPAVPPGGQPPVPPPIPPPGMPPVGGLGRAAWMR
Experimental: In vitro CDK12/cyclinK assays for all compounds and in vitro kinome-wide inhibition profiling of 30d at 10 μM were performed by a CRO company (Reaction Biology Corp., San Diego, CA, USA).

[1] = Tables 1-4, read-out: CDK12/CyclinK (IC50/μM)

Row | Compound | cyclinK level (Western blot) (cyclinK) | PolII p-CTD (Ser2) level (Western blot) (Pol II p-CTD (Ser2)) | GI50 (SK-Br3 cells) [µM] | GI50 (HCC1954 cells) [µM] | IC50 (CDK12/CyclinK; [1]) [µM] | IC50 (CDK12/CyclinK; read-out: CDK12/cyclinK IC50) [µM] | IC50 (CDK12/CyclinK; Table 5, means and standard deviations from three independent assays, read-out: CDK12/CyclinK (IC50/μM)) [µM]
1 | CC(C)n1cnc2c(NCc3ccc(-c4ccccn4)cn3)nc(-c3cccnc3)nc21 [Compound 17a, N-([2,3′-Bipyridin]-6′-ylmethyl)-9-isopropyl-2-(pyridin-3-yl)-9H-purin-6-amine] | most prominent cyclinK degradation; also recorded: downregulated Pol II p-CTD (Ser2) and cyclinK in a dose-dependent manner | downregulated Pol II p-CTD (Ser2) and cyclinK in a dose-dependent manner | 0.151 ± 0.025 | 0.106 ± 0.011 | 0.433 | – | –
2 | CC(C)n1cnc2c(NCc3ccc(-c4cccnc4)cn3)nc(-c3cccnc3)nc21 [Compound 17b, N-([3,3′-Bipyridin]-6-ylmethyl)-9-isopropyl-2-(pyridin-3-yl)-9H-purin-6-amine] | downregulated Pol II p-CTD (Ser2) and cyclinK in a dose-dependent manner | downregulated Pol II p-CTD (Ser2) and cyclinK in a dose-dependent manner | 0.862 ± 0.178 | 0.627 ± 0.128 | 0.582 | – | –
3 | CC(C)n1cnc2c(NCc3ccc(-c4ccncc4)cn3)nc(-c3cccnc3)nc21 [Compound 17d, N-([3,4′-Bipyridin]-6-ylmethyl)-9-isopropyl-2-(pyridin-3-yl)-9H-purin-6-amine] | downregulated Pol II p-CTD (Ser2) and cyclinK in a dose-dependent manner | downregulated Pol II p-CTD (Ser2) and cyclinK in a dose-dependent manner | 0.741 ± 0.034 | 0.887 ± 0.04 | 0.627 | – | –
4 | Cc1cc(-c2ccc(CNc3nc(-c4cccnc4)nc4c3ncn4C(C)C)nc2)ccn1 [Compound 17e, 9-Isopropyl-N-((2′-methyl-[3,4′-bipyridin]-6-yl)methyl)-2-(pyridin-3-yl)-9H-purin-6-amine] | downregulated Pol II p-CTD (Ser2) and cyclinK in a dose-dependent manner | downregulated Pol II p-CTD (Ser2) and cyclinK in a dose-dependent manner | 0.277 ± 0.038 | 0.23 ± 0.044 | 0.481 | – | –
5 | CC(C)n1cnc2c(NCc3ccc(-c4cccnc4)nc3)nc(-c3ccc(NCCO)nc3)nc21 [Compound 22a, 2-((5-(6-(([2,3′-Bipyridin]-5-ylmethyl)amino)-9-isopropyl-9H-purin-2-yl)pyridin-2-yl)amino)ethan-1-ol] | – | – | 0.262 ± 0.021 | 0.174 ± 0.019 | 0.053 | – | –
6 | CC(C)n1cnc2c(NCc3ccc(-c4cccnc4)nc3)nc(-c3ccc(NCCCO)nc3)nc21 [Compound 22b, 3-((5-(6-(([2,3′-Bipyridin]-5-ylmethyl)amino)-9-isopropyl-9H-purin-2-yl)pyridin-2-yl)amino)propan-1-ol] | – | – | 1.18 ± 0.118 | 0.977 ± 0.07 | 0.304 | – | –
7 | CC(C)n1cnc2c(NCc3ccc(-c4cccnc4)nc3)nc(-c3ccnc(NCCO)c3)nc21 [Compound 22c, 2-((4-(6-(([2,3′-Bipyridin]-5-ylmethyl)amino)-9-isopropyl-9H-purin-2-yl)pyridin-2-yl)amino)ethan-1-ol] | – | – | 0.473 ± 0.087 | 0.433 ± 0.052 | 0.086 | – | –
8 | CC(C)n1cnc2c(NCc3ccc(-c4cccnc4)nc3)nc(-c3ccnc(NCCCO)c3)nc21 [Compound 22d, 3-((4-(6-(([2,3′-Bipyridin]-5-ylmethyl)amino)-9-isopropyl-9H-purin-2-yl)pyridin-2-yl)amino)propan-1-ol] | – | – | 0.48 ± 0.026 | 0.387 ± 0.037 | 0.113 | – | –
9 | Cc1cc(N)n(-c2nc(NCc3ccc(-c4cccnc4)nc3)c3ncn(C(C)C)c3n2)n1 [Compound 24, N-([2,3′-Bipyridin]-5-ylmethyl)-2-(5-amino-3-methyl-1H-pyrazol-1-yl)-9-isopropyl-9H-purin-6-amine] | – | – | 5.16 ± 0.365 | 3.44 ± 0.177 | 2.35 | – | –
10 | CC(C)n1cnc2c(NCc3ccc(-c4cccnc4)nc3)nc(-n3cc(CO)nn3)nc21 [Compound 26a, (1-(6-(([2,3′-Bipyridin]-5-ylmethyl)amino)-9-isopropyl-9H-purin-2-yl)-1H-1,2,3-triazol-4-yl)methanol] | – | – | 13.3 ± 3.15 | 9.97 ± 1.86 | 2.05 | – | –
11 | CC(C)n1cnc2c(NCc3ccc(-c4cccnc4)nc3)nc(-n3cc(CCO)nn3)nc21 [Compound 26b, 2-(1-(6-(([2,3′-Bipyridin]-5-ylmethyl)amino)-9-isopropyl-9H-purin-2-yl)-1H-1,2,3-triazol-4-yl)ethan-1-ol] | – | – | 8.3 ± 0.882 | 6.16 ± 0.429 | 0.539 | – | –
12 | CCn1cnc2c(NCc3ccc(-c4cccnc4)nc3)nc(-c3cccnc3)nc21 [Compound 28a, N-([2,3′-Bipyridin]-5-ylmethyl)-9-ethyl-2-(pyridin-3-yl)-9H-purin-6-amine] | – | – | 0.215 ± 0.053 | 0.142 ± 0.014 | 0.016 | < 0.03 | –
13 | c1cncc(-c2ccc(CNc3nc(-c4cccnc4)nc4c3ncn4C3CCCC3)cn2)c1 [Compound 28b, N-([2,3′-Bipyridin]-5-ylmethyl)-9-cyclopentyl-2-(pyridin-3-yl)-9H-purin-6-amine] | – | – | 2.6 ± 0.31 | 2.14 ± 0.176 | 0.293 | – | –
14 | CN(C)C/C=C/C(=O)Nc1ccc(C(=O)N2CCC[C@@H](Nc3ncc(Cl)c(-c4c[nH]c5ccccc45)n3)C2)cc1 [THZ531, reference compound] | – | – | 0.03 ± 0.006 | 0.195 ± 0.05 | – | – | 0.051 ± 0.007
